# Experiments:
# NCI-H358 [1] = assay: MTS cell viability (cytotoxicity) assay, 2D cell culture; assay type: cell-based; conditions: Homo sapiens; NCI-H358, 2D cell culture, 72 h, MTS; ±SD, N = 2; read-out: IC50 antitumor activity NCI-H358 2D
# Protocol: (§1) Compounds are diluted 1:3. 500 nL (for 2 D cell culture) or 400 nL (for 3 D cell culture) of compound were transferred from mother plate to test plate by using Mosquito (TTP labtech). DMSO percentage in test concentrations was 0.5 − 1.0%. Starting concentration of the test compounds and standard compound doxorubicin was 50 µM (2 D cell culture) or 100 µM (3 D cell culture).
# (§2) Cells were grown in 96 well cell star polystyrene plates. 10,000 cells/well were seeded in wells 4 h prior the treatment with different compounds concentrations and incubated for 72 h. A cell viability assay was performed according to the manufacturer’s instruction, using CellTiter 96 aqueous solution, MTS kit (Promega, Madison, WI, USA). After 0.5–2 h of cell incubation with MTS in 2 D cell culture, the plates were read using PE EnVision absorbance at 490 nm. […] Since we prefer homogeneous assays (mix and read procedures) and therefore MTS is more practical (one step less than MTT). MTS is more sensitive and accurate in comparison with MTT assay.
# (§3) Calculation of IC50 data, curves and QC analysis is made by using Excel tools and GraphPadPrism software (La Jolla, CA), v. […] QC criteria parameters (Z', S:B, R2, HillSlope) were checked for every IC50 curve.
# HCC827 = assay: as above; assay type: cell-based; conditions: Homo sapiens; HCC827, 2D cell culture, 72 h, MTS; ±SD, N = 2; read-out: IC50 antitumor activity HCC827 2D
# Protocol: as §1, §2, §3
# A549 [2] = assay: as above; assay type: cell-based; conditions: Homo sapiens, A549, 2D cell culture, 72 h, ±SD, N = 2, read-out: IC50 antitumor activity A549 2D
# Protocol: as §1, §2, §3
# [3] = Metabolic stability in liver microsomes; assay type: in vitro ADME; conditions: 60 min
# Protocol: Tested compounds (final concentration of 1 µM, 0.1% DMSO), as well as testosterone and propranolol as positive controls and caffeine as negative control were incubated in phosphate buffer (50 mM, pH 7.4) for 60 min at 37 °C with liver microsomes (human and mouse) in the absence and presence of the NADPH cofactor. The NADPH generating system was prepared in phosphate buffer and consisted of nicotinamide adenine dinucleotide phosphate (NADP, 0.38 mM), glucose-6-phosphate (1.49 mM), glucose-6-phosphate dehydrogenase (1.5 U) and magnesium chloride (0.1 mM). Aliquots were taken at different time points (0, 10, 20, 30, 45 and 60 min) and reaction was terminated by addition of a MeCN/MeOH (2:1) mixture, containing diclofenac as internal standard. Samples were then centrifuged (at 4500 rpm, at 4 °C, for 30 min) and resulting supernatants were subjected to LC-MS/MS analysis. The in vitro half life (t½) was determined from the slope of the linear regression of ln % parent compound remaining versus incubation time. In vitro intrinsic clearance, expressed as µl/min/mg liver, was determined from in vitro half life (t½) and normalised for the protein concentration in the incubation mixture. Predicted in vivo hepatic clearance was determined from in vitro intrinsic clearance assuming 52.5 mg of protein/g of liver and using constant values for liver weight/body weight [g/kg] (25.7 for human, 87.5 for mouse) and liver blood flow (LBF) [ml/min/kg] (21 for human and 131 for mouse).
# All ADME samples were analysed on a Sciex API 4000 or Sciex API4500 Triple Quadrupole Mass Spectrometer (Sciex, Framingham, MA, USA) coupled to a UHPLC System (Shimadzu Nexera X2; Shimadzu, Kyoto, Japan). Samples were injected onto an UPLC column (HALO2 C18, 2.1 × 20 mm, 2 µm or Phenomenex Luna Omega Polar C18, 30 × 2.1 mm, 1.6 µm) and eluted with a gradient at temperature of 50 °C. The mobile phase was composed of acetonitrile (with 0.1% formic acid) and 0.1% formic acid in deionised water. A total run time was 1 or 1.5 min, with the flow rate of 0.7 ml/min (under gradient conditions). A positive ion mode with turbo spray, an ion source temperature of 500 °C and a dwell time of 150 ms were utilised for mass spectrometric detection. Multiple reaction monitoring (MRM) was used at the specific transitions for each compound/control tested: compound 5c: 361.9 → 304.9; compound 5d: 344.8 → 287.9; compound 5e: 349.8 → 292.9; compound 5 g: 350.8 → 293.9; compound 5 h: 344.0 → 286.9; compound 6a: 276.9 → 220.0; compound 5 b: 319.0 → 262.0; compound 6 b: 302.1 → 245.1; compound 6c: 344.9 → 288.0; compound 6d: 333.0 → 276.0; compound 6e: 316.1 → 259.0; compound 6f: 327.1 → 270.0; compound 6 g: 377.1 → 320.1; testosterone: 289.3→ 97.1; propranolol: 260.1 → 182.8; caffeine: 195.2 → 138.1; acebutolol: 337.2 → 116.2, nicardipine: 480.2 → 315.0; verapamil: 455.4 → 165.1; amprenavir: 506.2 → 245.4; diclofenac: 296.1 → 213.7 or 296.2 → 215.3; eucatropine: 292.2 → 109.1; benfluorex: 352.1 → 230.3, and warfarin: 309.2 → 163.2
# NCI-H358 [4] = assay: BrdU proliferation assay, 3D cell culture; assay type: cell-based; conditions: Homo sapiens, NCI-H358, 3D cell culture, ±SD, N = 2
# Protocol: (§4) Cells were grown in 96 well Perfecta 3 D hanging drop plates 5000 cell/well for 4 days until spheres were formed (and checked under the microscope). After sphere formation cells were treated with compounds followed by 72 h incubation. Cell viability assay was performed according to the manufacturer’s instruction, using CellTiter GLO 3 D for 3 D cell culture (Promega); cell incubation was 5 min on the shaker followed by 25 min incubation in the dark. Plates were read using PE EnVision luminescence. The results for each of tested compounds are reported as growth percentages from two independent concentrations curves compared with the untreated control cells after drug exposure.
# (§5) Proliferation assay was performed using Cell Proliferation ELISA, BrdU (Sigma, St. Louis, MO, USA). Briefly, 48 h hours after compound addition, 10 µM of BrdU was added to each well and incubated for following 24 h. After incubation, single cell suspension was made for 3 D cell culture in the new 96 well plate. Plates were centrifuged and supernatants were removed from each plate (for 2 D and 3 D cell culture) followed by 60 min incubation at 60° C. The rest of the proliferation assay was performed according to the manufacturer instructions.
# (§6) Calculation of IC50 data, curves and QC analysis is made by using Excel tools and GraphPadPrism software (La Jolla, CA), v. 5.03. In brief, individual concentration–effect curves are generated by plotting the logarithm of the tested concentration of tested compounds (X) versus corresponding percent inhibition values (Y) using least squares (ordinary) fit. […] QC criteria parameters (Z', S:B, R2, HillSlope) were checked for every IC50 curve.
# A549 [5] = assay: BrdU proliferation assay, 3D cell culture; assay type: cell-based; conditions: Homo sapiens, A549, 3D cell culture, ±SD, N = 2
# Protocol: as §4, §5, §6
Compound,"Microsomes (1 µM) Predicted in vivo hep CL, Human [3]","Microsomes (1 µM) Predicted in vivo hep CL, Mouse [3]",IC50 (NCI-H358 [4]),IC50 (A549 [5]),IC50 (NCI-H358 [1]),IC50 (HCC827),IC50 (A549 [2])
"Cl.N#Cc1ccc(-c2nc3ccc(C4=NCCCN4)cc3s2)cc1 [Compound 5b, 2–(4-Cyanophenyl)-6–(3,4,5,6-tetrahydropyrimidin-1-ium-2-yl)benzothiazole chloride]",<30 %LBF,<30 %LBF,> 100 µM,87 ± 0.11 µM,> 50 µM,> 50 µM,> 50 µM
"Cl.FC(F)(F)c1ccc(-c2nc3ccc(C4=NCCCN4)cc3s2)cc1 [Compound 5c, 2–(4-Trifluoromethylphenyl)-6–(3,4,5,6-tetrahydropyrimidin-1-ium-2-yl)benzothiazole chloride]",<30 %LBF,<30 %LBF,4.31 µM,13 ± 0.78 µM,23 ± 0.79 µM,7 ± 0.45 µM,34 ± 8.65 µM
"Cl.c1ccc2nc(-c3nc4ccc(C5=NCCCN5)cc4s3)ccc2c1 [Compound 5d, 2-(Quinoline-2-yl)-6–(3,4,5,6-tetrahydropyrimidin-1-ium-2-yl)benzothiazole chloride]",<30 %LBF,<30 %LBF,13 ± 1.65 µM,16 ± 1.3 µM,20 ± 2.53 µM,14 ± 2.09 µM,> 50 µM
"Cl.c1ccc2sc(-c3nc4ccc(C5=NCCCN5)cc4s3)cc2c1 [Compound 5e, 2-(Benzo[b]thiophen-2-yl)-6–(3,4,5,6-tetrahydropyrimidin-1-ium-2-yl)benzothiazole chloride]",<30 %LBF,,5 ± 0.81 µM,23 ± 6.24 µM,16 ± 0.98 µM,7 ± 0.12 µM,36 ± 6.37 µM
"Cl.c1ccc2sc(-c3nc4ccc(C5=NCCCN5)cc4s3)nc2c1 [Compound 5g, 2-(Benzothiazole-2-yl)-6–(3,4,5,6-tetrahydropyrimidin-1-ium-2-yl)benzothiazole chloride]",<30 %LBF,<30 %LBF,7 ± 2.33 µM,14 ± 3.07 µM,26 ± 0.3 µM,19 ± 2.21 µM,41 ± 0.54 µM
"Cl.c1ccc2cc(-c3nc4ccc(C5=NCCCN5)cc4s3)ccc2c1 [Compound 5h, 2-(Naphthalene-2-yl)-6–(3,4,5,6-tetrahydropyrimidin-1-ium-2-yl)benzothiazole chloride]",<30 %LBF,<30 %LBF,1 ± 0.81 µM,14 ± 0.06 µM,10 ± 1 µM,6 ± 0.05 µM,38 ± 3.68 µM
"c1ccc(-c2nc3cc(C4=NCCCN4)ccc3[nH]2)cc1 [Compound 6a, 2-Phenyl-5(6)–(3,4,5,6-tetrahydropyrimidin-1-ium-2-yl)benzimidazole chloride]",56 %LBF,41 %LBF,3 ± 1.41 µM,12 ± 0.28 µM,13 ± 0.28 µM,6 ± 0.5 µM,15 ± 1.7 µM
"N#Cc1ccc(-c2nc3cc(C4=NCCCN4)ccc3[nH]2)cc1 [Compound 6b, 2–(4-Cyanophenyl)-5(6)–(3,4,5,6-tetrahydropyrimidin-1-ium-2-yl)benzimidazole chloride]",<30 %LBF,<30 %LBF,> 100 µM,> 100 µM,> 50 µM,> 50 µM,> 50 µM

# The next lines start with results.
"Microsomes (1 µM) Predicted in vivo hep CL, Human [3]","Microsomes (1 µM) Predicted in vivo hep CL, Mouse [3]",IC50 (NCI-H358 [4]),IC50 (A549 [5]),Compound,IC50 (NCI-H358 [1]),IC50 (HCC827),IC50 (A549 [2])
<30 %LBF,<30 %LBF,> 100 µM,> 100 µM,"FC(F)(F)c1ccc(-c2nc3cc(C4=NCCCN4)ccc3[nH]2)cc1 [Compound 6c, 2–(4-Trifluoromethylphenyl)-5(6)–(3,4,5,6-tetrahydropyrimidin-1-ium-2-yl)benzimidazole chloride]",> 50 µM,> 50 µM,> 50 µM
<30 %LBF,71 %LBF,> 100 µM,> 100 µM,"c1ccc2sc(-c3nc4cc(C5=NCCCN5)ccc4[nH]3)cc2c1 [Compound 6d, 2-(Benzo[b]thiophen-2-yl)-5(6)–(3,4,5,6-tetrahydropyrimidin-1-ium-2-yl)benzimidazole chloride]",> 50 µM,> 50 µM,> 50 µM
<30 %LBF,78 %LBF,> 100 µM,> 100 µM,"c1ccc2c(-c3nc4ccc(C5=NCCCN5)cc4[nH]3)c[nH]c2c1 [Compound 6e, 2-(1H-Indol-3-yl)-5(6)–(3,4,5,6-tetrahydropyrimidin-1-ium-2-yl)benzimidazole chloride]",> 50 µM,> 50 µM,> 50 µM
<30 %LBF,77 %LBF,> 100 µM,> 100 µM,"c1ccc2cc(-c3nc4cc(C5=NCCCN5)ccc4[nH]3)ccc2c1 [Compound 6f, 2-(Naphthalene-2-yl)-5(6)–(3,4,5,6-tetrahydropyrimidin-1-ium-2-yl)benzimidazole chloride]",> 50 µM,> 50 µM,> 50 µM

# — article PMC7801115, “Preclinical in vitro screening of newly synthesised amidino substituted benzimidazoles and benzothiazoles” (Journal of Enzyme Inhibition and Medicinal Chemistry, 2021)
